In patent publication US7179823B1, “5-membered n-heterocyclic compounds with hypoglycemic and hypolipidemic activity” (Takeda Pharmaceutical Company Limited, priority 1999, dated 2007) one finds change in vivo, inhibition in vivo and melting point data, which are given here for nine compounds.

One data set deals with KKA^y mice. Briefly: Total cholesterol lowering action and plasma anti-arteriosclerosis index-enhancing action in mice. The data set is classed as in vivo. Conditions: Mus musculus, po, 96 h, four days, non-treatment group taken as 100%; for change in vivo at 0.01 % / inhibition in vivo at 0.01 %: 0.01% in powdery diet; for change in vivo at 0.005 % / inhibition in vivo at 0.005 %: 0.005% in powdery diet. From the text:
Total Cholesterol Lowering Action and Plasma Anti-Arteriosclerosis Index-Enhancing Action in Mice
Test compounds were mixed in a powdery diet (CE-2, Japan Clea) at the concentration of 0.01% (compounds of Examples 12, 30, 89), 0.005% (compounds of Examples 38, 40, 44, 181, 184, 262, 283), or 0.001% (compounds of Examples 9, 156, 167, 172, 174, 176, 189), and freely given to KKA^y mice (9 to 12 weeks old, 5 mice per group), a model of obese and type 2 diabetes mellitus, for four days. During this period, water was given freely. Blood was sampled from orbital venous plexus and plasma was separated. Total cholesterol levels were determined by using L type Wako Cholesterol (Wako Pure Chemical Industries, Ltd.). Precipitation reagent for apoB containing lipoprotein was added to a part of the plasma to precipitate non-HDL lipoprotein, and cholesterol (HDL cholesterol) in the resulting supernatant was determined. The plasma anti-arteriosclerosis index [(HDL cholesterol/total cholesterol)×100] was calculated by using these cholesterol levels.
In the Table, “Total cholesterol lowering action (%)” represents the percent reduction (%) of total cholesterol level in the treatment group, when the total cholesterol level in the non-treatment group is taken as 100%. “Plasma anti-arteriosclerosis index-enhancing action (%)” represents the percent increase (%) of plasma anti-arteriosclerosis index in the treatment group, when the plasma anti-arteriosclerosis index in the non-treatment group is taken as 100%.

Setting [1] is: percent increase of [(HDL cholesterol/total cholesterol)×100], read-out: Plasma anti-arteriosclerosis index-enchancing action (%).
Where [2] appears, read: percent reduction of plasma total cholesterol.

The term inhibition in vivo denotes the percentage by which the read-out fell short of the control. For orientation: melting point means the temperature, or range, at which the solid turns liquid. Compound `O=C(O)CCc1cn(Cc2ccc(OCc3csc(-c4ccccc4)n3)cc2)cc1-c1ccccc1` [Example 30, 3-[4-phenyl-1-[4-(2-phenyl-4-thiazolylmethoxy)benzyl]-3-pyrrolyl]propionic acid] returned a melting point of 111 to 112 °C. For the same compound, in the data set on KKA^y mice (setting [1]), the change in vivo at 0.01 % came to 16%. The inhibition in vivo at 0.01 % with KKA^y mice (setting [2]) worked out at 27%.

In turn, `O=C(O)CCc1cn(Cc2ccc(OCc3cccnc3)cc2)cc1-c1ccccc1` [Example 12, 3-[4-phenyl-1-[4-(3-pyridylmethoxy)benzyl]-3-pyrrolyl]propionic acid] registered a melting point of 131 to 132 °C. Further, in the data set with KKA^y mice (setting [1]), the change in vivo at 0.01 % was determined as 24%. Also, the inhibition in vivo at 0.01 % in the data set on KKA^y mice (setting [2]) was 15%.

`CCOc1nn(Cc2ccc(OCc3nc(-c4ccccc4)oc3C)nc2)cc1CC(=O)O` [Example 262, 3-ethoxy-1-[6-(5-methyl-2-phenyl-4-oxazolylmethoxy)-3-pyridylmethyl]-1H-pyrazol-4-ylacetic acid] returned a melting point of 126 to 127 °C. Also, the change in vivo at 0.005 % in the data set with KKA^y mice (setting [1]) is 9%. For the same compound, the inhibition in vivo at 0.005 % with KKA^y mice (setting [2]) was found to be 22%.

For the compound `O=C(O)CCc1cn(Cc2ccc(OCc3csc(-c4cccs4)n3)cc2)cc1-c1ccccc1` [Example 40, 3-[4-phenyl-1-[4-[2-(2-thienyl)-4-thiazolylmethoxy]benzyl]-3-pyrrolyl]propionic acid], the melting point lay in the range of 106 to 107 °C. Moreover, the change in vivo at 0.005 % in the data set with KKA^y mice (setting [1]) stood at 22%. In the data set with KKA^y mice (setting [2]), the inhibition in vivo at 0.005 % was found to be 19%.

Turning to `Cc1oc(-c2ccccc2)nc1COc1ccc(Cn2cc(CCC(=O)O)c(-c3ccccc3)n2)cc1` [Example 89, 3-[1-[4-(5-methyl-2-phenyl-4-oxazolylmethoxy)benzyl]-3-phenyl-1H-pyrazol-4-yl]propionic acid], the melting point fell in the range of 179 to 180 °C. For the same compound, the change in vivo at 0.01 % in the data set with KKA^y mice (setting [1]) was found to be 15%. Moreover, the inhibition in vivo at 0.01 % in the data set on KKA^y mice (setting [2]) was 8%.

In turn, `Cc1oc(-c2cccs2)nc1COc1ccc(Cn2cc(CCC(=O)O)c(-c3ccccc3)c2)cc1` [Example 9, 3-[1-[4-[5-methyl-2-(2-thienyl)-4-oxazolylmethoxy]benzyl]-4-phenyl-3-pyrrolyl]propionic acid] displayed a melting point of 117 to 118 °C. In addition, in the data set with KKA^y mice (0.001% in powdery diet, percent increase of [(HDL cholesterol/total cholesterol)×100], read-out: Plasma anti-arteriosclerosis index-enchancing action (%)), the change in vivo at 0.001 % came to 12%. Also, the inhibition in vivo at 0.001 % in the data set on KKA^y mice (0.001% in powdery diet, percent reduction of plasma total cholesterol) stood at 16%.

Consider `Cc1oc(-c2ccccc2)nc1COc1ccc(Cn2cc(CCC(=O)O)c(-c3ccccc3)n2)cn1` [Example 283, 3-[1-[2-(5-methyl-2-phenyl-4-oxazolylmethoxy)-5-pyridylmethyl]-3-phenyl-1H-pyrazol-4-yl]propionic acid], for which, in the data set with KKA^y mice (setting [1]), the change in vivo at 0.005 % turned out to be 19%. Besides, the inhibition in vivo at 0.005 % in the data set on KKA^y mice (setting [2]) was found to be 24%.

In the case of `O=C(O)CCc1cn(Cc2ccc(OCc3coc(-c4ccccc4)n3)cc2)cc1-c1ccccc1` [Example 44, 3-[4-phenyl-1-[4-(2-phenyl-4-oxazolylmethoxy]benzyl]-3-pyrrolyl]propionic acid], the melting point lay in the range of 139 to 140 °C. In addition, the change in vivo at 0.005 % in the data set with KKA^y mice (setting [1]) is 21%. For the same compound, in the data set on KKA^y mice (setting [2]), the inhibition in vivo at 0.005 % turned out to be 23%.

With `O=C(O)CCc1cn(Cc2ccc(OCc3csc(-c4ccco4)n3)cc2)cc1-c1ccccc1` [Example 38, 3-[1-[4-[2-(2-furyl)-4-thiazolylmethoxy]benzyl]-4-phenyl-3-pyrrolyl]propionic acid], the melting point lay within 114 to 115 °C. Also, the change in vivo at 0.005 % in the data set with KKA^y mice (setting [1]) came out at 21%. For the same compound, the inhibition in vivo at 0.005 % in the data set on KKA^y mice (setting [2]) was determined as 24%.
